“Also recorded” adds a separate entry of the source.
Experiments:
[1] = molecular target: α1-adrenoceptor (3H-prazosin binding sites); experiment: displacement of 3H-prazosin from rat cerebral cortical (brain) membranes; conditions: for -logIC50: 3H-prazosin displacement, rat cerebral cortical membranes; for affinity to alpha1-adrenoceptors (in words): discussion of Table 1
Description: IC50 values and apparent Ki values were determined as in Table 1.
Rat brain cortices were homogenized in approximately 30 volumes/wet weight of 50 mM Tris buffer, pH 7.4, containing 10 mM MgCl2 by use of a Polytron (setting 6 for 10 seconds). It should be noted that this buffer was used throughout the experimental procedures. The homogenate was centrifuged at 48,000×g for 10 minutes in a Sorvall RC-5B centrifuge. The resulting pellet was resuspended in buffer by use of a Polytron and recentrifuged. This process was repeated and the pellet was resuspended in approximately 200 volumes for affinity studies or 20 volumes for irreversibility experiments.
Specific binding was defined as the difference between total binding (measured in the absence of any ligand) and non-specific binding (measured in the presence of 10 microM phentolamine). Duplicate tubes were used for each condition. Reaction tubes were incubated for 30 minutes at 30° C., then diluted to 5 ml with ice cold buffer, and filtered under reduced pressure through Whatman GF/C glass fiber filters. The reaction tubes and filters were washed three additional times with buffer.

[2] = test system: α1-adrenoceptor (3H-prazosin binding sites); experiment: irreversibility experiment: membranes preincubated with compound, washed, assayed for saturation of 3H-prazosin binding; design: species or system rat; conditions: for irreversible blockade / effect on 3H-prazosin binding sites (in words): membranes, preincubation and washing
[3] = test system: spontaneously hypertensive rats; conditions: conscious; previously shown; cited from earlier work
[4] = test system: alpha1-adrenoceptors and other receptors; conditions: prior art, cited from earlier work

COc1cc2nc(N3CCN(C(=O)[C@@H]4C[C@H]4c4ccccc4)CC3)nc(N)c2cc1OC (relative stereo) [Compound 25]
-logIC50 [1]: 9.29
affinity to alpha1-adrenoceptors (in words) [1]: affinity similar to that of the cinnamoyl compound No. 9

COc1cc2nc(N3CCN(C(=O)[C@@H]4O[C@H]4c4ccccc4)CC3)nc(N)c2cc1OC (relative stereo) [Compound 26]
-logIC50 [1]: 7.45
affinity to alpha1-adrenoceptors (in words) [1]: two orders of magnitude lower than that of cyclopropane

COc1cc2nc(N3CCN(C(=O)n4ccnc4)CC3)nc(N)c2cc1OC [Compound 2]
-logIC50 [1]: 7.97
affinity to alpha1-adrenoceptors (in words) [1]: low affinity

COc1cc2nc(N3CCN(C(=O)CBr)CC3)nc(N)c2cc1OC [Compound 3]
-logIC50 [1]: 5.27
affinity to alpha1-adrenoceptors (in words) [1]: low affinity

COC(=O)/C=C/C(=O)N1CCN(c2nc(N)c3cc(OC)c(OC)cc3n2)CC1 [Compound 4]
-logIC50 [1]: 9.15

COC(=O)/C=C/C=C/C(=O)N1CCN(c2nc(N)c3cc(OC)c(OC)cc3n2)CC1 [Compound 5]
-logIC50 [1]: 8.01

C/C=C/C=C/C(=O)N1CCN(c2nc(N)c3cc(OC)c(OC)cc3n2)CC1 [Compound 6]
-logIC50 [1]: 8.81
affinity to alpha1-adrenoceptors (in words) [1]: high affinity
irreversible blockade / effect on 3H-prazosin binding sites (in words) [2]: did not irreversibly block alpha1 -adrenoceptors; also recorded: do not attach irreversibly to the receptor

COc1cc2nc(N3CCN(C(=O)CCc4ccccc4)CC3)nc(N)c2cc1OC [Compound 7]
-logIC50 [1]: 8.47
affinity to alpha1-adrenoceptors (in words) [1]: affinity is considerably decreased

COc1cc2nc(N3CCN(C(=O)COc4ccccc4)CC3)nc(N)c2cc1OC [Compound 8]
-logIC50 [1]: 7.90
affinity to alpha1-adrenoceptors (in words) [1]: affinity is considerably decreased

COc1cc2nc(N3CCN(C(=O)/C=C/c4ccccc4)CC3)nc(N)c2cc1OC [Compound 9]
-logIC50 [1]: 9.16
irreversible blockade / effect on 3H-prazosin binding sites (in words) [2]: do not attach irreversibly to the receptor
reduction of blood pressure in spontaneously hypertensive rats [3]: capable of reducing blood pressure

COc1cc2nc(N3CCN(C(=O)/C=C/c4ccc(F)cc4)CC3)nc(N)c2cc1OC [Compound 10]
-logIC50 [1]: 7.92

COc1cc2nc(N3CCN(C(=O)C=Cc4ccc(Cl)cc4)CC3)nc(N)c2cc1OC [Compound 11]
-logIC50 [1]: 7.90

COc1cc2nc(N3CCN(C(=O)C=Cc4ccc(Br)cc4)CC3)nc(N)c2cc1OC [Compound 12]
-logIC50 [1]: 7.10

COc1cc2nc(N3CCN(C(=O)C=Cc4cccc(F)c4)CC3)nc(N)c2cc1OC [Compound 13]
-logIC50 [1]: 7.68

COc1cc2nc(N3CCN(C(=O)C=Cc4c(F)c(F)c(F)c(F)c4F)CC3)nc(N)c2cc1OC [Compound 14]
-logIC50 [1]: 6.94

COc1ccc(/C=C/C(=O)N2CCN(c3nc(N)c4cc(OC)c(OC)cc4n3)CC2)cc1 [Compound 15]
-logIC50 [1]: 8.47

COc1cc2nc(N3CCN(C(=O)/C=C/c4ccc(N=[N+]=[N-])cc4)CC3)nc(N)c2cc1OC [Compound 16]
-logIC50 [1]: 9.49
affinity to alpha1-adrenoceptors (in words) [1]: single exception; also recorded: improved the affinity

COc1cc2nc(N3CCN(C(=O)C=Cc4ccc(N=C=S)cc4)CC3)nc(N)c2cc1OC [Compound 17]
-logIC50 [1]: 6.99

COc1cc2nc(N3CCN(C(=O)/C=C/c4ccc(NC(=O)CBr)cc4)CC3)nc(N)c2cc1OC [Compound 18]
-logIC50 [1]: 6.97

COC(=O)/C=C/C(=O)Nc1ccc(/C=C/C(=O)N2CCN(c3nc(N)c4cc(OC)c(OC)cc4n3)CC2)cc1 [Compound 19]
-logIC50 [1]: 7.79

COc1cc2nc(N3CCN(C(=O)C(F)=Cc4ccccc4)CC3)nc(N)c2cc1OC [Compound 20]
-logIC50 [1]: 7.89

COc1cc2nc(N3CCN(C(=O)C(=Cc4ccccc4)N=[N+]=[N-])CC3)nc(N)c2cc1OC [Compound 21]
-logIC50 [1]: 8.06

COc1cc2nc(N3CCN(C(=O)C(=Cc4ccccc4)c4ccccc4)CC3)nc(N)c2cc1OC [Compound 22]
-logIC50 [1]: 7.51

COc1cc2nc(N3CCN(C(=O)/C=C/C(=O)c4ccccc4)CC3)nc(N)c2cc1OC [Compound 23]
-logIC50 [1]: 7.06
affinity to alpha1-adrenoceptors (in words) [1]: reduced affinity considerably

COc1cc2nc(N3CCN(C(=O)c4ccc5ccccc5c4)CC3)nc(N)c2cc1OC [Compound 24]
-logIC50 [1]: 7.31
affinity to alpha1-adrenoceptors (in words) [1]: decreased considerably

COc1cc2nc(N3CCN(C(=O)C4C(C=C(C)C)C4(C)C)CC3)nc(N)c2cc1OC (stereo not shown) [Compound 27]
-logIC50 [1]: 7.15
affinity to alpha1-adrenoceptors (in words) [1]: very low affinity

COc1cc2nc(N3CCN(C(=O)C#Cc4ccccc4)CC3)nc(N)c2cc1OC [Compound 28]
-logIC50 [1]: 7.92

COc1cc2nc(N3CCN(C(=S)Nc4ccccc4)CC3)nc(N)c2cc1OC [Compound 29]
affinity to alpha1-adrenoceptors (in words) [1]: much higher affinity for alpha1 -adrenoceptors than prazosin

COc1cc2nc(N3CCN(C(=S)NC4CCCCC4)CC3)nc(N)c2cc1OC [Compound 30]
-logIC50 [1]: 8.27
affinity to alpha1-adrenoceptors (in words) [1]: decrease

COc1cc2nc(N3CCN(C(=S)Nc4ccc(F)cc4)CC3)nc(N)c2cc1OC [Compound 31]
-logIC50 [1]: 8.62

COc1cc2nc(N3CCN(C(=S)Nc4c(F)c(F)c(F)c(F)c4F)CC3)nc(N)c2cc1OC [Compound 32]
-logIC50 [1]: 7.80

COc1cc2nc(N3CCN(C(=S)Nc4ccc(N=[N+]=[N-])cc4)CC3)nc(N)c2cc1OC [Compound 33]
-logIC50 [1]: 7.70
affinity to alpha1-adrenoceptors (in words) [1]: decrease

COc1cc2nc(N3CCN(C(=S)Nc4ccc(N=C=S)cc4)CC3)nc(N)c2cc1OC [Compound 34]
-logIC50 [1]: 7.18

COc1cc2nc(N3CCN(C(=S)Nc4cccc(N=C=S)c4)CC3)nc(N)c2cc1OC [Compound 35]
-logIC50 [1]: 7.30

COc1cc2nc(N3CCN(C(=S)Nc4ccc(NC(=S)N5CC5)cc4)CC3)nc(N)c2cc1OC [Compound 36]
-logIC50 [1]: 7.01

COC(=O)C=Cc1ccc(NC(=S)N2CCN(c3nc(N)c4cc(OC)c(OC)cc4n3)CC2)cc1 [Compound 37]
-logIC50 [1]: 7.43

COc1cc2nc(N3CCN(C(=S)Nc4cccc5ccccc45)CC3)nc(N)c2cc1OC [Compound 38]
-logIC50 [1]: 7.41

COc1cc2nc(N3CCN(C(=O)Nc4ccccc4)CC3)nc(N)c2cc1OC [Compound 39]
-logIC50 [1]: 7.56
affinity to alpha1-adrenoceptors (in words) [1]: considerably decreased the affinity

COc1cc2nc(N3CCN(C(=O)c4cccc(CCl)c4)CC3)nc(N)c2cc1OC [Compound 40]
-logIC50 [1]: 7.93

COc1cc2nc(N3CCN(C(=O)c4ccc(N=C=S)c(I)c4)CC3)nc(N)c2cc1OC [Compound 41]
-logIC50 [1]: 7.29
affinity to alpha1-adrenoceptors (in words) [1]: much lower affinity

COC(=O)/C=C/C(=O)Nc1ccc(CCCCC(=O)N2CCN(c3nc(N)c4cc(OC)c(OC)cc4n3)CC2)cc1 [Compound 42]
-logIC50 [1]: 8.07

COc1cc2nc(N3CCN(S(=O)(=O)c4ccc(C)cc4)CC3)nc(N)c2cc1OC [Compound 43]
-logIC50 [1]: 7.94
affinity to alpha1-adrenoceptors (in words) [1]: low affinity

COc1cc2nc(N3CCN(S(=O)(=O)c4cccs4)CC3)nc(N)c2cc1OC [Compound 44]
-logIC50 [1]: 7.47
affinity to alpha1-adrenoceptors (in words) [1]: low affinity

COc1cc2nc(N3CCN(C(=O)c4cc(Cl)nc(Cl)n4)CC3)nc(N)c2cc1OC [Compound 45]
-logIC50 [1]: 7.49
affinity to alpha1-adrenoceptors (in words) [1]: failed to yield an active compound

COc1cc2nc(N3CCN(C(=O)C4CC5C=CC4C5)CC3)nc(N)c2cc1OC (stereo not shown) [Compound 46]
-logIC50 [1]: 8.61
affinity to alpha1-adrenoceptors (in words) [1]: high affinity

COc1cc2nc(N3CCN(C(=O)C4=CC5CCC4CC5)CC3)nc(N)c2cc1OC [Compound 48]
-logIC50 [1]: 8.4
overall behaviour compared with compound 47 [2]: behaves similarly to 47 in those aspects which were investigated

CCOC(=O)N1c2ccccc2C=CC1OCC (stereo not shown) [N-ethoxycarbonyl-2-ethoxy-1,2-dihydroquinoline]
concentration required relative to more specific chemoreactive labels ([4]; factor higher): about 10^4
receptor specificity (in words) [4]: receptor specificity of N-ethoxycarbonyl-2-ethoxy-1,2-dihydroquinoline is also low

CC(COc1ccccc1)N(CCCl)Cc1ccccc1 (stereo not shown) [phenoxybenzamine, reference compound]
Kd (KD) of remaining 3H-prazosin binding sites (in words) ([2]; after preincubation and washing): without significant Kd changes in the remaining sites
blockade of 3H-prazosin binding sites by phenoxybenzamine ([2]; brain membranes, FIG. 4): approximately 85%
irreversible blockade / effect on 3H-prazosin binding sites (in words) [2]: block almost all ^3 -prazosin binding sites in brain membranes
receptor specificity (in words) [4]: not very specific

c1c[nH]c(CNCCCCCCNCCSSCCNCCCCCCNCc2ccc[nH]2)c1 [pyrextramine]
receptor specificity (in words) [4]: block peripheral alpha2 -adrenergic responses as well
